From patent US20110039763A1, “TARGETED ANTIMICROBIAL MOIETIES” (C3 JIAN, INC., priority 2009, published 2011)
Entries after “also recorded” stand apart in the source; their conditions may differ.

Key:
[1] = system: microorganisms; test: Targeting peptide binding to target microorganisms (Tables 3, 10, 12); conditions: microorganism(s) the targeting peptide binds; binding in aqueous buffers varied with peptide solubility, preferably 1x PBS
[2] = system: microorganisms; test: Peptide activities: targeting/binding, antimicrobial, growth or phenotype altering (Tables 7, 8); assay type: cell-based; conditions: peptides having multiple activities
[3] = system: microorganisms; test: Morphology, biofilm and growth disrupting peptides (Table 5); assay type: cell-based; parameters: key: A: Peptide aggregates; B: Less hyphal formation; Clumps; Diffuse clumps and small polyps; F: Diffuse growth; H: Thin; I: Growth inhibition; Microcolony formation; Rippled; Small polyps; Thick; W: Halo formation on top, microlonies on bottom
From the text: In certain embodiments peptides that induce alterations in phenotype or other biological activities can also be used as antimicrobial effector moieties.

For “PF-585: peptide having multiple activities (chain 1 DYNHLLNVVQDWVNTN; chain 2 DYNHLLNVVQDWVNTN; Peptide with targeting and/or antimicrobial activity)”, the “Target(s)” value [1] was “S. epidermidis and E. coli and C. albicans and MRSA and S. pneumoniae and C. jeikeium”, the Activities [2] was “G B” and the “Organism, effect” value ([3]; C. jejuni) was “C. jejuni (R)”. The “Organism, effect” value ([3]; E. faecalis) was “E. faecalis (A)”, the “Organism, effect” value ([3]; MRSA) was “MRSA (S)” and the “Organism, effect” value ([3]; S. epidermidis) was “S. epidermidis (S)”. The “Organism, effect” value ([3]; S. pneumoniae) was “S. pneumoniae (R)”.
In the case of “PF-588: peptide having multiple activities (chain 1 ESVEAIKAKAIK; chain 2 ESVEAIKAKAIK; Peptide with targeting and/or antimicrobial activity)”, the “Target(s)” value [1] is reported as “S. epidermidis; also recorded: E. coli; also recorded: C. albicans; also recorded: E. faecalis; also recorded: C. jeikeium; also recorded: C. jejuni”, the Activities [2] is reported as “G B” and the “Organism, effect” value ([3]; E. faecalis) is reported as “E. faecalis (A)”.
With “PF-590: peptide having multiple activities (chain 1 YYQAKLFPLL; chain 2 YYQAKLFPLL; Peptide with targeting and/or antimicrobial activity)” the “Target(s)” value [1] was “S. epidermidis; also recorded: M. luteus; also recorded: E. coli; also recorded: E. faecalis; also recorded: C. jeikeium”, the Activities [2] was “G B” and the “Organism, effect” value ([3]; C. jejuni) was “C. jejuni (R)”.
With “PF-593: peptide having multiple activities (chain 1 MEISTLKKEKLHVKDELSQYLANYKK; chain 2 MEISTLKKEKLHVKDELSQYLANYKK; Peptide with targeting and/or antimicrobial activity)” the “Target(s)” value [1] was “C. jeikeium”, the Activities [2] was “G B” and the “Organism, effect” value ([3]; E. faecalis) was “E. faecalis (A)”.
With “PF-594: peptide having multiple activities (chain 1 IVSAIV; chain 2 IVSAIV; Peptide with targeting and/or antimicrobial activity)” the “Target(s)” value [1] was “C. jeikeium”, the Activities [2] was “G B” and the “Organism, effect” value ([3]; E. faecalis) was “E. faecalis (C)”.
With “PF-598: peptide having multiple activities (chain 1 MKFMLEVRNKAISAYKEITRTQI; chain 2 MKFMLEVRNKAISAYKEITRTQI; Peptide with targeting and/or antimicrobial activity)” the “Target(s)” value [1] was “S. epidermidis and M. luteus and P. mirabilis and P. aeruginosa and C. albicans and MRSA and S. pneumoniae and C. jeikeium”, the Activities [2] was “G B” and the “Organism, effect” value ([3]; C. jejuni) was “C. jejuni (R)”. For the same substance, the “Organism, effect” value ([3]; E. coli) was “E. coli (C)”, the “Organism, effect” value ([3]; E. faecalis) was “E. faecalis (R)” and the “Organism, effect” value ([3]; MRSA) was “MRSA (D)”. For the same substance, the “Organism, effect” value ([3]; S. epidermidis) was “S. epidermidis (R)” and the “Organism, effect” value ([3]; S. pneumoniae) was “S. pneumoniae (R)”.
For “PF-599: peptide having multiple activities (chain 1 LFEIFKPKH; chain 2 LFEIFKPKH; Peptide with targeting and/or antimicrobial activity)”, the “Target(s)” value [1] was “S. epidermidis and P. mirabilis and E. coli and C. albicans and MRSA and S. pneumoniae and C. jeikeium”, the Activities [2] was “G B” and the “Organism, effect” value ([3]; C. jejuni) was “C. jejuni (R)”. The “Organism, effect” value ([3]; E. faecalis) was “E. faecalis (A)”, the “Organism, effect” value ([3]; MRSA) was “MRSA (C)” and the “Organism, effect” value ([3]; S. epidermidis) was “S. epidermidis (M)”. For the same substance, the “Organism, effect” value ([3]; S. pneumoniae) was “S. pneumoniae (R)”.
“PF-601: peptide having multiple activities (chain 1 YRVTVKALE; chain 2 YRVTVKALE; Peptide with targeting and/or antimicrobial activity)” was tested, and the “Target(s)” value [1] was “C. jeikeium”, the Activities [2] was “G B” and the “Organism, effect” value ([3]; C. jejuni) was “C. jejuni (A)”. For the same substance, the “Organism, effect” value ([3]; E. faecalis) was “E. faecalis (A)”.
In the case of “PF-602: peptide having multiple activities (chain 1 LEKEKKEYIEKLFKTK; chain 2 LEKEKKEYIEKLFKTK; Peptide with targeting and/or antimicrobial activity)”, the “Target(s)” value [1] is reported as “P. mirabilis; also recorded: C. jeikeium”, the Activities [2] is reported as “G B” and the “Organism, effect” value ([3]; E. faecalis) is reported as “E. faecalis (A)”.
With “PF-604: peptide having multiple activities (chain 1 LMEQVEV; chain 2 LMEQVEV; Peptide with targeting and/or antimicrobial activity)” the “Target(s)” value [1] was “S. epidermidis; also recorded: C. albicans; also recorded: C. jeikeium”, the Activities [2] was “G B” and the “Organism, effect” value ([3]; E. faecalis) was “E. faecalis (A)”.
With “PF-607: peptide having multiple activities (chain 1 YIESDPRKFDYIFGAIRDH; chain 2 YIESDPRKFDYIFGAIRDH; Peptide with targeting and/or antimicrobial activity)” the “Target(s)” value [1] was “S. epidermidis and P. mirabilis and E. coli and MRSA and S. pneumoniae and C. jeikeium”, the Activities [2] was “G B” and the “Organism, effect” value ([3]; C. jejuni) was “C. jejuni (R)”. For the same substance, the “Organism, effect” value ([3]; E. faecalis) was “E. faecalis (A)”, the “Organism, effect” value ([3]; MRSA) was “MRSA (S)” and the “Organism, effect” value ([3]; S. epidermidis) was “S. epidermidis (M)”. For the same substance, the “Organism, effect” value ([3]; S. pneumoniae) was “S. pneumoniae (R)”.
For “PF-609: peptide having multiple activities (chain 1 TEIKLDNNEYLVLNLDDILGILK; chain 2 TEIKLDNNEYLVLNLDDILGILK; Peptide with targeting and/or antimicrobial activity)”, the “Target(s)” value [1] was “P. mirabilis; also recorded: E. coli; also recorded: S. pneumoniae”, the Activities [2] was “G B” and the “Organism, effect” value ([3]; C. jejuni) was “C. jejuni (R)”. The “Organism, effect” value ([3]; E. faecalis) was “E. faecalis (A)”, the “Organism, effect” value ([3]; MRSA) was “MRSA (C)” and the “Organism, effect” value ([3]; S. pneumoniae) was “S. pneumoniae (R)”.
“PF-613: peptide having multiple activities (chain 1 ADEFAKL; chain 2 ADEFAKL; Peptide with targeting and/or antimicrobial activity)” was tested, and the “Target(s)” value [1] was “C. jeikeium”, the Activities [2] was “G B” and the “Organism, effect” value ([3]; E. faecalis) was “E. faecalis (A)”. The “Organism, effect” value ([3]; MRSA) was “MRSA (C)” and the “Organism, effect” value ([3]; S. epidermidis) was “S. epidermidis (R)”.
With “PF-614: peptide having multiple activities (chain 1 GLDIYA; chain 2 GLDIYA; Peptide with targeting and/or antimicrobial activity)” the “Target(s)” value [1] was “S. epidermidis; also recorded: E. coli; also recorded: C. jeikeium”, the Activities [2] was “G B” and the “Organism, effect” value ([3]; C. jejuni) was “C. jejuni (R)”. The “Organism, effect” value ([3]; E. faecalis) was “E. faecalis (A)”, the “Organism, effect” value ([3]; S. epidermidis) was “S. epidermidis (M)” and the “Organism, effect” value ([3]; S. pneumoniae) was “S. pneumoniae (R)”.
In the case of “PF-616: peptide having multiple activities (chain 1 IVFVVTKEKK; chain 2 IVFVVTKEKK; Peptide with targeting and/or antimicrobial activity)”, the “Target(s)” value [1] is reported as “C. jeikeium”, the Activities [2] is reported as “G B” and the “Organism, effect” value ([3]; E. faecalis) is reported as “E. faecalis (A)”. For the same substance, the “Organism, effect” value ([3]; S. epidermidis) was “S. epidermidis (R)”.
For “PF-617: peptide having multiple activities (chain 1 PMNAAEPE; chain 2 PMNAAEPE; Peptide with targeting and/or antimicrobial activity)”, the “Target(s)” value [1] was “P. aeruginosa; also recorded: C. albicans”, the Activities [2] was “G B” and the “Organism, effect” value ([3]; C. albicans) was “C. albicans (H)”. The “Organism, effect” value ([3]; E. faecalis) was “E. faecalis (H)” and the “Organism, effect” value ([3]; S. pneumoniae) was “S. pneumoniae (I)”.
“PF-621: peptide having multiple activities (chain 1 PPSSFLV; chain 2 PPSSFLV; Peptide with targeting and/or antimicrobial activity)” was tested, and the “Target(s)” value [1] was “S. epidermidis; also recorded: C. albicans”, the Activities [2] was “G B” and the “Organism, effect” value ([3]; E. faecalis) was “E. faecalis (H)”. The “Organism, effect” value ([3]; S. pneumoniae) was “S. pneumoniae (I)”.
For “PF-622: peptide having multiple activities (chain 1 TREDVFSVRLINNIVNKQA; chain 2 TREDVFSVRLINNIVNKQA; Peptide with targeting and/or antimicrobial activity)”, the “Target(s)” value [1] was “S. epidermidis; also recorded: P. aeruginosa; also recorded: C. albicans; also recorded: S. pneumoniae; also recorded: E. faecalis; also recorded: C. jeikeium”, the Activities [2] was “G B” and the “Organism, effect” value ([3]; C. jeikeium) was “C. jeikeium (D)”. The “Organism, effect” value ([3]; E. faecalis) was “E. faecalis (D)”, the “Organism, effect” value ([3]; MRSA) was “MRSA (D)” and the “Organism, effect” value ([3]; S. epidermidis) was “S. epidermidis (D)”. The “Organism, effect” value ([3]; S. pneumoniae) was “S. pneumoniae (M)”.
“PF-623: peptide having multiple activities (chain 1 VLFAVYLGALDWLFSWLTQKM; chain 2 VLFAVYLGALDWLFSWLTQKM; Peptide with targeting and/or antimicrobial activity)” was tested, and the “Target(s)” value [1] was “S. epidermidis and P. aeruginosa and MRSA and S. pneumoniae and E. faecalis and C. jeikeium”, the Activities [2] was “G B” and the “Organism, effect” value ([3]; C. jeikeium) was “C. jeikeium (R)”. For the same substance, the “Organism, effect” value ([3]; E. faecalis) was “E. faecalis (D)”, the “Organism, effect” value ([3]; MRSA) was “MRSA (D)” and the “Organism, effect” value ([3]; S. epidermidis) was “S. epidermidis (M)”. For the same substance, the “Organism, effect” value ([3]; S. pneumoniae) was “S. pneumoniae (D)”.
With “PF-625: peptide having multiple activities (chain 1 SDSTNNARTRKKARDVTTKDIDK; chain 2 SDSTNNARTRKKARDVTTKDIDK; Peptide with targeting and/or antimicrobial activity)” the “Target(s)” value [1] was “S. epidermidis; also recorded: M. luteus; also recorded: S. pneumoniae; also recorded: C. jeikeium”, the Activities [2] was “G B” and the “Organism, effect” value ([3]; S. pneumoniae) was “S. pneumoniae (H)”.
“PF-626: peptide having multiple activities (chain 1 KYDFDDFEPEEA; chain 2 KYDFDDFEPEEA; Peptide with targeting and/or antimicrobial activity)” was tested, and the “Target(s)” value [1] was “S. epidermidis and M. luteus and E. coli and C. albicans and MRSA and S. pneumoniae and E. faecalis and C. jeikeium”, the Activities [2] was “G B” and the “Organism, effect” value ([3]; S. pneumoniae) was “S. pneumoniae (H)”.
